Results as given in US6689806B1, “Indolinone compounds as kinase inhibitors” (Sugen, Inc., priority 1999, dated 2004).

Assays:
PDGFR = PDGFR (Homo sapiens, UniProt P09619); experiment: PDGF-induced BrdU incorporation assay; assay type: cell-based; parameters: expressed in transfected cells; host or cells: 3T3; settings: Table 6; 3T3 cells expressing human PDGF-R, PDGF 3.8 nM; read-out: PDGF-Driven BrdU Incorp. IC50
Procedure: (§1) The cellular/biologic assays described herein measure the amount of DNA made in response to activation of a test kinase, which is a general measure of a proliferative response. The general procedure for this assay is as follows: a compound is introduced to cells expressing the test kinase, either naturally or recombinantly, for some period of time after which, if the test kinase is a receptor, a ligand known to activate the receptor is added. After incubation at least overnight, a DNA labeling reagent such as Bromodeoxy-uridine (BrdU) or 3H-thymidine is added. The amount of labeled DNA is detected with either an anti-BrdU antibody or by measuring radioactivity and is compared to control cells not contacted with a test compound.
PDGF-Induced BrdU Incorporation Assay
(8) 3T3 cell line genetically engineered to express human PDGF-R.
(1) Cells are seeded at 8000 cells/well in DMEM, 10% CS, 2 mM Gln in a 96 well plate. Cells are incubated overnight at 37° C. in 5% CO2.
(§2) (2) After 24 hours, the cells are washed with PBS, and then are serum starved in serum free medium (0% CS DMEM with 0.1% BSA) for 24 hours.
(§3) (3) On day 3, ligand (PDGF, 3.8 nM, prepared in DMEM with 0.1% BSA) and test compounds are added to the cells simultaneously. The negative control wells receive serum free DMEM with 0.1% BSA only; the positive control cells receive the ligand (PDGF) but no test compound. Test compounds are prepared in serum free DMEM with ligand in a 96 well plate, and serially diluted for 7 test concentrations.
(§4) (4) After 20 hours of ligand activation, diluted BrdU labeling reagent (1: 100 in DMEM, 0.1% BSA) is added and the cells are incubated with BrdU (final concentration=10 μM) for 1.5 hours.
(§5) (10) The absorbance of the samples are measured at 410 nm (in “dual wavelength” mode with a filter reading at 490 nm, as a reference wavelength) on a Dynatech ELISA plate reader.

Her2 [1] = molecular target: T1, Her2 (Homo sapiens, UniProt P04626); experiment: EGF-induced Her2-driven BrdU incorporation; assay type: cell-based; settings: Table 6; 3T3 cells with EGF-R/Her2 chimeric receptor, EGF 2 nM; read-out: Her2-Driven BrdU Incorp. IC50
T1 construct: fused on or other part: P00533 (Epidermal growth factor receptor)
T1 sequence (P04626 676-1255 limits assumed): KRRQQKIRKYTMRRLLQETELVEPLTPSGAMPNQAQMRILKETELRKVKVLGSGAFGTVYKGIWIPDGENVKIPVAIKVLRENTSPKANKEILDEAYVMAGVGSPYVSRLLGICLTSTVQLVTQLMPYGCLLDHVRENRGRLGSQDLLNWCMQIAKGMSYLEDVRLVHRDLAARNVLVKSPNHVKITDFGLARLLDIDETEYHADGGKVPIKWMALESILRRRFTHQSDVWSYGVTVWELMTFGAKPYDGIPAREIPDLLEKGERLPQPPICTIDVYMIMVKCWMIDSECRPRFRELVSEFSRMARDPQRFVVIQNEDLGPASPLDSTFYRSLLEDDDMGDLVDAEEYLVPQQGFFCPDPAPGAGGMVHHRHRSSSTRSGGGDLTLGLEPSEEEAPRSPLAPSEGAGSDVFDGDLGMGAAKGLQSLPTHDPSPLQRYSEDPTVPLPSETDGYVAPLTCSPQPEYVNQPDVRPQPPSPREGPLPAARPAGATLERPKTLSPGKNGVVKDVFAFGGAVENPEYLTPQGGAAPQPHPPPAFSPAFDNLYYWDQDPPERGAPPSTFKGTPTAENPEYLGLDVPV
Procedure: as §1
EGF-Induced Her2-Driven BrdU Incorporation
(8) 3T3 cell line engineered to express a chimeric receptor having the extra-cellular domain of EGF-R and the intra-cellular domain of Her2.
(1) Cells are seeded at 8000 cells/well in DMEM, 10% CS, 2 mM Gln in a 96-well plate. Cells are incubated overnight at 37° C. in 5% CO2.
as §2
as §3, with “(EGF=2” for “(PDGF, 3.8”, “(EGF)” for “(PDGF)”
(4) After 20 hours of ligand activation, diluted BrdU labeling reagent (1:100 in DMEM, 0.1% BSA) is added and the cells are incubated with BrdU (final concentration=[…]) for 1.5 hours.
as §5

EGFR [2] = molecular target: T2, EGFR (Homo sapiens, UniProt P00533); experiment: EGF-induced BrdU incorporation assay; assay type: cell-based; parameters: expressed in transfected cells; host or cells: 3T3; settings: Table 6; 3T3 cells expressing human EGF-R, EGF 2 nM; read-out: EGF-Driven BrdU Incorp. IC50
T2 sequence (P00533 25-1210): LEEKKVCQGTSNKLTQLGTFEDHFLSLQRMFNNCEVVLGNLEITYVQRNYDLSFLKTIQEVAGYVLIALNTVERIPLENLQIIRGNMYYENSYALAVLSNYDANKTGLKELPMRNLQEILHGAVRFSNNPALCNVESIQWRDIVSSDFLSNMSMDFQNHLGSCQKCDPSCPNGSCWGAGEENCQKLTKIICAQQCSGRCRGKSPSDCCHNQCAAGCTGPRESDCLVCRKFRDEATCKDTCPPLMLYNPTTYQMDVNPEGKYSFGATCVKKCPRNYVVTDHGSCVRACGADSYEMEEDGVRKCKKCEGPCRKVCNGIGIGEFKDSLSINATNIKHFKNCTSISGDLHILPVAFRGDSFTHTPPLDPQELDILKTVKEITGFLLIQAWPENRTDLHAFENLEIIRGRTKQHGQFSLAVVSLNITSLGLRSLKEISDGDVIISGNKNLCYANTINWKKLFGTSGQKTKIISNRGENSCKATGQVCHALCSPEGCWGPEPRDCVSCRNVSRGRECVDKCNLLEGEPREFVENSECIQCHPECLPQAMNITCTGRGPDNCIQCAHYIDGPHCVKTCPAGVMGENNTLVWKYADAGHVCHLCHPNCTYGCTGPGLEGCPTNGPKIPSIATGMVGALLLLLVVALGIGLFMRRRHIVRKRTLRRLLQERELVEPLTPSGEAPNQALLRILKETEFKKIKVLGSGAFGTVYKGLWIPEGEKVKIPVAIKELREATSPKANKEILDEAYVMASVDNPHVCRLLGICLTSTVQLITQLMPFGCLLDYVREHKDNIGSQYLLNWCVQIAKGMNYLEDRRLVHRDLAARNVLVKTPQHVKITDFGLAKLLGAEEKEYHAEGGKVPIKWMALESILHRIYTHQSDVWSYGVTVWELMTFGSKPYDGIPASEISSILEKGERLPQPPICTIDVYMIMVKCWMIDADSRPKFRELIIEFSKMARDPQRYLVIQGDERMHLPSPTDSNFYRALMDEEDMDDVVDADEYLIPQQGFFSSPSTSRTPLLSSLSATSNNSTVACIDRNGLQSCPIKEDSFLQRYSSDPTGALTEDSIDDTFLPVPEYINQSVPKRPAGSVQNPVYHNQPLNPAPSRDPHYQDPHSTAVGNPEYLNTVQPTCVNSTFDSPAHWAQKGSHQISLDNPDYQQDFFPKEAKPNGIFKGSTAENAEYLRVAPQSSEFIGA
Procedure: as §1
EGF-Induced BrdU Incorporation Assay
(8) 3T3 cell line genetically engineered to express human EGF-R.
(1) Cells are seeded at 8000 cells/well in 10% CS, 2 mM Gin in DMEM, in a 96 well plate. Cells are incubated overnight at 37° C. in 5% CO2.
as §2
as §3, with “(EGF, 2” for “(PDGF, 3.8”, “0.1%/BSA)” for “0.1% BSA)”, “(EGF)” for “(PDGF)”
as §4, §5

Her2 [3] = molecular target: T1, Her2; experiment: HER-2 ELISA: EGF receptor-HER2 chimeric receptor assay in whole cells (HER2 kinase); assay type: cell-based; settings: Table 7; NIH3T3 cells with EGFR/HER2 chimeric receptor, phosphotyrosine ELISA
Procedure: Assay 1: EGF Receptor-HER2 Chimeric Receptor Assay In Whole Cells.
HER2 kinase activity in whole EGFR-NIH3T3 cells was measured as described below:
1. An NIH3T3 cell line overexpressing a chimeric receptor containing the EGFR extracellular domain and intracellular HER2 kinase domain can be used for this assay.
3. Resuspend cells in seeding medium (DMEM, 0.5% bovine serum), and count the cells using trypan blue. Viability above 90% is acceptable. Seed cells in DMEM medium (0.5% bovine serum) at a density of 10,000 cells per well, 100 μL per well, in a 96 well microtiter plate. Incubate seeded cells in 5% CO2 at 37° C. for about 40 hours.
1. Check seeded cells for contamination using an inverted microscope. Dilute drug stock (10 mg/mL in DMSO) 1:10 in DMEM medium, then transfer 5 μL to a TBST well for a final drug dilution of 1:200 and a final DMSO concentration of 1%. Control wells receive DMSO alone. Incubate in 5% CO2 at 37° C. for two hours.
2. Prepare EGF ligand: dilute stock EGF in DMEM so that upon transfer of 10 μL dilute EGF (1:12 dilution), 100 nM final concentration is attained.
4. After 120 minutes incubation with drug, add prepared […] ligand to cells, 10 μL per well, to a final concentration of 100 nM. Control wells receive DMEM alone. Incubate, shaking, at room temperature, for 5 minutes.
5. Remove drug, EGF, and DMEM. Wash cells twice with PBS. Transfer HNTG* to cells, 100 μL per well. Place on ice for 5 minutes. Meanwhile, remove blocking buffer from other ELISA plate and wash with TBST as described above.
6. With a pipette tip securely fitted to a micropipettor, scrape cells from plate and homogenize cell material by repeatedly aspirating and dispensing the HNTG* lysis buffer. Transfer lysate to a coated, blocked, and washed ELISA plate. Incubate shaking at room temperature for one hour.
7. Remove lysate and wash 4 times with TBST. Transfer freshly diluted anti-Ptyr antibody to ELISA plate at 100 μL per well. Incubate shaking at room temperature for 30 minutes in the presence of the anti-Ptyr antiserum (1:3000 dilution in TBST).
8. Remove the anti-Ptyr antibody and wash 4 times with TBST. Transfer the freshly diluted TAGO anti-rabbit IgG antibody to the ELISA plate at 100 μL per well. Incubate shaking at room temperature for 30 minutes (anti-rabbit IgG antibody: 1:3000 dilution in TBST).
9. Remove TAGO detection antibody and wash 4 times with TBST. Transfer freshly prepared ABTS/H2O2 solution to ELISA plate, 100 μL per well. Incubate shaking at room temperature for 20 minutes. (ABTS/H2O2 solution: 1.0 μL 30% H2O2 in 10 mL ABTS stock).
10. Stop reaction by adding 50 μL 5N H2SO4 (optional), and determine O.D. at 410 nm.
11. The maximal phosphotyrosine signal is determined by subtracting the value of the negative controls from the positive controls. The percent inhibition of phosphotyrosine content for extract-containing wells is then calculated, after subtraction of the negative controls.

EGFR [4] = molecular target: T2, EGFR; experiment: Biochemical EGFR assay (ELISA); parameters: A431 cell lysate; endogenous in cells; host or cells: A431; settings: Table 7, in vitro kinase activity, read-out: EGFr biochem IC50
Procedure: This assay measures the in vitro kinase activity of EGFR using ELISA.
1. Coat Coming 96 well ELISA plates with 0.5 μg SUMOl in 100 μL PBS per well, store overnight at 4° C.
5. Dilute lysate in PBS (7 μg lysate/100 μL PBS).
6. Add 100 μL of diluted lysate to each well. Shake at room temperature for 60 min.
8. Add 120 μL TBS to ELISA plate containing captured EGFR.
9. Dilute test compound 1:10 in TBS in 96-well polypropylene plates (ie. 10 μL compound+90 μL TBS).
10. Add 13.5 μL diluted test compound to ELISA plate.
13. After 5 minutes, stop reaction by adding 16.5 μL of 200 mM EDTA (pH 8.0) to each well, shaking continuously. After the EDTA has been added, shake for 1 mm.
15. Add 100 μL anti-phosphotyrosine (1:3000 dilution in TBST) per well. Incubate 30-45 min. at room temperature, with shaking.
17. Add 100 μL Biosource Goat anti-rabbit IgG peroxidase conjugate (1:2000 dilution in TBST) to each well. Incubate 30 min. at room temperature, with shaking.
19. Add 100 μL of ABTS/H2O2 solution to each well.
22. Read assay on Dynatech MR7000 ELISA reader. Test Filter: 410 nM Reference Filter: 630 Nm.

SKOV3 = SKOV3 growth; assay type: cell-based; settings: Homo sapiens, SK-OV-3; Table 7; SKOV3 cells
A431 = A431 growth; assay type: cell-based; settings: Homo sapiens, A-431; Table 7; A431 cells

Sequence of PDGFR (P09619 33-1106): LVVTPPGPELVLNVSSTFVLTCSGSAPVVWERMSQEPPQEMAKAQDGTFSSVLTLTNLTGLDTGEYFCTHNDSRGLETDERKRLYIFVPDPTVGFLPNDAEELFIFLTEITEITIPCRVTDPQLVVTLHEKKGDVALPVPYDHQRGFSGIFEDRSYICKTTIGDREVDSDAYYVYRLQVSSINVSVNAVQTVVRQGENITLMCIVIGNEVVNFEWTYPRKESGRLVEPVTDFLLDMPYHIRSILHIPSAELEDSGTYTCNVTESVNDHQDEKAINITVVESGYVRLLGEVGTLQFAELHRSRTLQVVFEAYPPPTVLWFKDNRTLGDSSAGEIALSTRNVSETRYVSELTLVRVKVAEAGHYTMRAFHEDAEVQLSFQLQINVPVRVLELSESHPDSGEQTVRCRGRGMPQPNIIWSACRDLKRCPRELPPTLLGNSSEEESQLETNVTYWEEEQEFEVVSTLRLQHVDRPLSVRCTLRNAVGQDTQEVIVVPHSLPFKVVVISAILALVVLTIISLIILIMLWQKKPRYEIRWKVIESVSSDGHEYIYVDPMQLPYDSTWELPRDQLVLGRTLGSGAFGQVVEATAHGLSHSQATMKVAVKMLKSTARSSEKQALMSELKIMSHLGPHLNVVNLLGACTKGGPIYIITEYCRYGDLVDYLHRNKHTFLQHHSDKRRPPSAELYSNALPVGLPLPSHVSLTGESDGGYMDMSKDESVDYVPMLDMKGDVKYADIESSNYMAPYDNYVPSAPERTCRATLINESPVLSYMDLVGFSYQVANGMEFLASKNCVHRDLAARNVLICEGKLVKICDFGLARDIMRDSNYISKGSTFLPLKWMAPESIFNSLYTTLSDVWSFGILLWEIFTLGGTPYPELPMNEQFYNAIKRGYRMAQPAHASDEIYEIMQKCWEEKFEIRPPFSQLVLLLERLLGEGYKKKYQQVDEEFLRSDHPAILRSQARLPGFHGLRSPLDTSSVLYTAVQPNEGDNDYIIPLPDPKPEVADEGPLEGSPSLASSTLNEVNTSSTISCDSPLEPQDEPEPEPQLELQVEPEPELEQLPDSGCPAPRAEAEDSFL

Compound	IC50 (PDGFR)	IC50 (Her2 [1])	IC50 (EGFR [2])	IC50 (Her2 [3])	IC50 (EGFR [4])	IC50 (SKOV3)	IC50 (A431)
COc1ccc(/C(=C2/C(=O)Nc3ccccc32)c2[nH]c(C)cc2C)cc1 [DAI-I, 3-[(3,5-Dimethyl-1H-pyrrol-2-yl)-(4-methoxy-phenyl)-methylene]-1,3-dihydro-indol-2-one]	0.77 µM	46.9 µM	> 50 µM	–	–	–	–
COc1ccc(/C(=C2/C(=O)Nc3ccccc32)c2[nH]c(C)cc2C)cc1OC [DAI-II, 3-[(3,4-dimethoxy-phenyl)-(3,5-dimethyl-1H-pyrrol-2-yl)-methylene]-1,3-dihydro-indol-2-one]	0.26 µM	30.2 µM	38.3 µM	–	–	–	–
CCNC(=O)OCCc1cccc2c1CC(=O)N2 [IN-016, Ethyl-carbamic acid 2-(2-oxo-2,3-dihydro-1H-indol-4-yl)-ethyl ester]	–	–	–	> 100 µM	> 100 µM	> 50 µM	> 50 µM
COc1ccc(OCCc2cccc3c2CC(=O)N3)cc1 [IN-017, 4-[2-(4-Methoxy-phenoxy)-ethyl]-1,3-dihydro-indol-2-one]	–	–	–	> 100 µM	> 100 µM	> 50 µM	–
CC(C)c1ccc(OCCc2cccc3c2CC(=O)N3)cc1 [IN-020, 4-[2-(4-Isopropyl-phenoxy)-ethyl]-1,3-dihydro-indol-2-one]	–	–	–	> 100 µM	> 100 µM	> 50 µM	15.2 µM

Now from value to molecule:

IC50 (PDGFR)	IC50 (Her2 [1])	IC50 (EGFR [2])	IC50 (Her2 [3])	IC50 (EGFR [4])	IC50 (SKOV3)	IC50 (A431)	Compound
–	–	–	> 100 µM	> 100 µM	> 25 µM	> 25 µM	O=C1Cc2c(CCOC(=S)Nc3ccccc3)cccc2N1 [IN-010, Phenyl-thiocarbamic acid O-[2-(2-oxo-2,3-dihydro-1H-indol-4-yl)-ethyl]ester]
–	–	–	> 100 µM	> 100 µM	> 50 µM	> 50 µM	O=C1Cc2c(CCOC(=O)Nc3ccccc3)cccc2N1 [IN-011, Phenyl-carbamic acid 2-(2-oxo-2,3-dihydro-1H-indol-4-yl)-ethyl ester]
–	–	–	> 100 µM	> 100 µM	> 50 µM	> 50 µM	CC(C)(C)NC(=O)OCCc1cccc2c1CC(=O)N2 [IN-012, tert-Butyl-carbamic acid 2-(2-oxo-2,3-dihydro-1H-indol-4-yl)-ethyl ester]
–	–	–	> 100 µM	> 100 µM	> 50 µM	> 50 µM	O=C1Cc2c(CCOC(=O)NC3CCCCC3)cccc2N1 [IN-013, Cyclohexyl-carbamic acid 2-(2-oxo-2,3-dihydro-1H-indol-4-yl)-ethyl ester]
–	–	–	> 100 µM	> 100 µM	> 50 µM	> 50 µM	O=C1Cc2c(CCOC(=O)NS(=O)(=O)c3ccccc3)cccc2N1 [IN-014, Benzene sulfonyl-carbamic acid 2-(2-oxo-2,3-dihydro-1H-indol-4-yl)-ethyl ester]
–	–	–	> 100 µM	> 100 µM	20.5 µM	21 µM	O=C1Cc2c(CCOC(=O)Nc3ccccc3-c3ccccc3)cccc2N1 [IN-015, Biphenyl-2-yl-carbamic acid 2-(2-oxo-2,3-dihydro-1H-indol-4-yl)-ethyl ester]
